# Experimental data taken from US20060251702A1, “Implantable materials and methods for inhibiting tissue adhesion formation” (Cook Biotech Incorporated, priority 2005, published 2006).
# Several values for one entry are separate records, joined by “and”; a condition that tells them apart may be missing. Identical values can stand only once. Like-named read-outs stand apart in the source and are kept apart here.
# Tested on: post-surgical adhesions on the traumatized cecal surface
# Type: in vivo
# Details: score of one rat, 21 days
# Description: The samples were then removed from solution, frozen at −80° C. overnight, relyophilized, and sterilized with ethylene oxide.
# Forty-nine 250-300 gram Sprague-Dawley rats were anesthetized with an IM dose of ketamine and xylazine and prepared for aseptic abdominal surgery. […] The adjacent wall of the peritoneal cavity was mildly abraded with the same nylon brush and the cecum was either placed back into the abdominal cavity, covered with biomaterial, which was anchored to the abdominal cavity by suturing it to mesenchymal fat, or injected with a solution and placed back into the abdominal cavity.
# Following cecal abrasion, groups of rats received one of the following 8 treatments: • Treatment 1: (Control) No biomaterials were implanted following cecal injury. […] Care was taken to avoid perforating the bowel N=6 rats. • Treatment 3: (PPM) a piece of polypropylene mesh (Bard) was placed over the abraded surface and secured with non-absorbable nylon suture. […] N=6 rats. • Treatment 8: […] DMSO was delivered to the peritoneal cavity prior to closure. N=6 rats.
# Following placement of the cecum back into the abdominal cavity, the abdominal wall was closed with 4-0 silk and the skin closed with surgical staples.
# [1] = IP high dose: 2.0 mg nimesulide in 1.0 mL DMSO to the peritoneal cavity
# [2] = IP low dose: 0.5 mg nimesulide in 1.0 mL DMSO to the peritoneal cavity
compound,measurement,setting,value
CS(=O)(=O)Nc1ccc([N+](=O)[O-])cc1Oc1ccccc1 [nimesulide],"Extent (of adhesions, score)",[1],1 (1=adhesions on 25% of the traumatized cecal surface) (3×) and 0
same,"Tenacity (of adhesions, score)",[1],2 (2×) and 1 and 0
same,"Extent (of adhesions, score)",[2],2 (2=adhesions on 50% of the traumatized cecal surface)
same,"Tenacity (of adhesions, score)",[2],2
